Experimental data: patent publication US9808003B2, “Herbicidally active 2-(substituted-phenyl)-cyclopentane-1,3-dione compounds and derivatives thereof” (Syngenta Limited, priority 2013, dated 2017)
Where “and” joins values, the source holds several entries; their conditions need not be identical. Equal entries are not always repeated.

Key:
Assay type in all cases: in vivo
Lolium perenne (LOLPE) = experiment: Test 1A glasshouse assay, post-emergence herbicidal activity; settings: Lolium perenne, 312 h, application rate 250 g/ha, 13 days after application, visual (100%=total damage; 0%=no damage), read-out: Post-emergence Herbicidal Activity (% Phytotoxicity) LOLPE
Summary of the method: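 Phytotoxicity was rated visually on a 0–100% scale 13 days post-spray. Pot-grown seedlings, 8 days old, received aqueous spray from an acetone/water 50:50 formulation with 0.5% Tween 20, then were kept in the glasshouse at 24/16° C day/night, 14 h light, 65% humidity.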

[1] = test system: Alopecurus myosuroides (ALOMY); experiment: Test 1B glasshouse assay, post-emergence herbicidal activity against grassy weeds; settings: 14 DAA
Summary of the method: (§1)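 Herbicide applied post-emergence at rates such as 60 g/ha (±50 g/ha cloquintocet-mexyl) or 90 and 120 g/ha (with safener), rates varying per compound. Plants kept at 22/16 °C, watered twice daily; percentage phytotoxicity scored visually after 14 days.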

Avena fatua (AVEFA) = experiment: as above; settings: 14 DAA
Summary of the method: as §1

[2] = test system: Lolium multiflorum (LOLMU); experiment: as above; settings: 14 DAA
Summary of the method: as §1

Poa annua (POAAN) = experiment: as above; settings: 14 DAA
Summary of the method: as §1

Setaria viridis (SETVI) = experiment: as above; settings: 14 DAA
Summary of the method: as §1

[3] = test system: Spring Barley “Harrington”; experiment: Test 1B glasshouse assay, post-emergence herbicidal activity against cereal crops; settings: for Post-emergence herbicidal activity against cereal crops, percentage phytotoxicity, Spring Barley “Harrington”: 14 DAA
Summary of the method: (§2)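 Visual percentage damage (100% = total, 0% = none) read 14 days after application, averaged over two replicates. Plants grown 14 days at 22/16 °C day/night before post-emergence spraying of unformulated compound (IF50/acetone, 0.5% v/v Adigor). Rates usually 60–120 g/ha; cloquintocet-mexyl 50 g/ha co-applied where stated.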

Winter Barley “Suzuka” = experiment: as above; settings: for Post-emergence herbicidal activity against cereal crops, percentage phytotoxicity, Winter Barley “Suzuka”: 14 DAA
Summary of the method: as §2

Winter Wheat “Hereward” = experiment: as above; settings: for Post-emergence herbicidal activity against cereal crops, percentage phytotoxicity, Winter Wheat “Hereward”: 14 DAA
Summary of the method: as §2

Spring Wheat “Freya” = experiment: as above
[4] = 30 g/ha herbicide, 50 g/ha cloquintocet-mexyl
[5] = 45 g/ha herbicide, 50 g/ha cloquintocet-mexyl
[6] = 60 g/ha herbicide, 0 g/ha cloquintocet-mexyl
[7] = 60 g/ha herbicide, 50 g/ha cloquintocet-mexyl
[8] = herbicide 30 g/ha, cloquintocet-mexyl 50 g/ha
[9] = herbicide 60 g/ha, cloquintocet-mexyl 0 g/ha
[10] = herbicide 60 g/ha, cloquintocet-mexyl 50 g/ha
[11] = herbicide 45 g/ha, cloquintocet-mexyl 50 g/ha

Cc1cc(C)c(C2C(=O)CC(CCNC(=O)c3cccc(F)n3)C2=O)c(C)c1 (racemic) [Compound A89]
pest or weed control at 250 g/ha (Lolium perenne (LOLPE)): 100% | Post-emergence herbicidal activity, percentage phytotoxicity, ALOMY [1, 4]: 88% and 80% | Post-emergence herbicidal activity, percentage phytotoxicity, ALOMY [1, 5]: 97% | Post-emergence herbicidal activity, percentage phytotoxicity, ALOMY [1, 6]: 98% and 99% | Post-emergence herbicidal activity, percentage phytotoxicity, ALOMY [1, 7]: 98% | Post-emergence herbicidal activity, percentage phytotoxicity, AVEFA (Avena fatua (AVEFA); [4]): 83% and 85% | Post-emergence herbicidal activity, percentage phytotoxicity, AVEFA (Avena fatua (AVEFA); [5]): 85% | Post-emergence herbicidal activity, percentage phytotoxicity, AVEFA (Avena fatua (AVEFA); [6]): 90% and 97% | Post-emergence herbicidal activity, percentage phytotoxicity, AVEFA (Avena fatua (AVEFA); [7]): 90% and 93% | Post-emergence herbicidal activity, percentage phytotoxicity, LOLMU [2, 4]: 90% and 93% | Post-emergence herbicidal activity, percentage phytotoxicity, LOLMU [2, 5]: 99% | Post-emergence herbicidal activity, percentage phytotoxicity, LOLMU [2, 6]: 100% | Post-emergence herbicidal activity, percentage phytotoxicity, LOLMU [2, 7]: 100% and 95% | Post-emergence herbicidal activity, percentage phytotoxicity, POAAN (Poa annua (POAAN); [4]): 0% | Post-emergence herbicidal activity, percentage phytotoxicity, POAAN (Poa annua (POAAN); [5]): 3% | Post-emergence herbicidal activity, percentage phytotoxicity, POAAN (Poa annua (POAAN); [6]): 25% and 15% | Post-emergence herbicidal activity, percentage phytotoxicity, SETVI (Setaria viridis (SETVI); [4]): 100% and 95% | Post-emergence herbicidal activity, percentage phytotoxicity, SETVI (Setaria viridis (SETVI); [5]): 100% | Post-emergence herbicidal activity, percentage phytotoxicity, SETVI (Setaria viridis (SETVI); [6]): 100% and 99% | Post-emergence herbicidal activity, percentage phytotoxicity, SETVI (Setaria viridis (SETVI); [7]): 100% | Post-emergence herbicidal activity against cereal crops, percentage phytotoxicity, Spring Barley “Harrington” [3, 4]: 13% | Post-emergence herbicidal activity against cereal crops, percentage phytotoxicity, Spring Barley “Harrington” [3, 5]: 55% | Post-emergence herbicidal activity against cereal crops, percentage phytotoxicity, Spring Barley “Harrington” [3, 6]: 95% | Post-emergence herbicidal activity against cereal crops, percentage phytotoxicity, Spring Barley “Harrington” [3, 7]: 85% | Percentage Phytotoxicity Spring Barley “Harrington” [3, 8]: 13% | Percentage Phytotoxicity Spring Barley “Harrington” [3, 9]: 88% | Percentage Phytotoxicity Spring Barley “Harrington” [3, 10]: 43% | Post-emergence herbicidal activity against cereal crops, percentage phytotoxicity, Winter Barley “Suzuka” (Winter Barley “Suzuka”; [4]): 8% | Post-emergence herbicidal activity against cereal crops, percentage phytotoxicity, Winter Barley “Suzuka” (Winter Barley “Suzuka”; [5]): 20% | Post-emergence herbicidal activity against cereal crops, percentage phytotoxicity, Winter Barley “Suzuka” (Winter Barley “Suzuka”; [6]): 95% | Post-emergence herbicidal activity against cereal crops, percentage phytotoxicity, Winter Barley “Suzuka” (Winter Barley “Suzuka”; [7]): 73% | Percentage Phytotoxicity Winter Barley “Suzuka” (Winter Barley “Suzuka”; [8]): 8% | Percentage Phytotoxicity Winter Barley “Suzuka” (Winter Barley “Suzuka”; [9]): 90% | Percentage Phytotoxicity Winter Barley “Suzuka” (Winter Barley “Suzuka”; [10]): 25% | Post-emergence herbicidal activity against cereal crops, percentage phytotoxicity, Winter Wheat “Hereward” (Winter Wheat “Hereward”; [4]): 15% | Post-emergence herbicidal activity against cereal crops, percentage phytotoxicity, Winter Wheat “Hereward” (Winter Wheat “Hereward”; [5]): 25% | Post-emergence herbicidal activity against cereal crops, percentage phytotoxicity, Winter Wheat “Hereward” (Winter Wheat “Hereward”; [6]): 60% | Post-emergence herbicidal activity against cereal crops, percentage phytotoxicity, Winter Wheat “Hereward” (Winter Wheat “Hereward”; [7]): 28% | Percentage Phytotoxicity Winter Wheat “Hereward” (Winter Wheat “Hereward”; [8]): 10% | Percentage Phytotoxicity Winter Wheat “Hereward” (Winter Wheat “Hereward”; [9]): 75% | Percentage Phytotoxicity Winter Wheat “Hereward” (Winter Wheat “Hereward”; [10]): 25% | Percentage Phytotoxicity Spring Wheat “Freya” (Spring Wheat “Freya”; [8]): 13% | Percentage Phytotoxicity Spring Wheat “Freya” (Spring Wheat “Freya”; [9]): 70% | Percentage Phytotoxicity Spring Wheat “Freya” (Spring Wheat “Freya”; [10]): 38%

Cc1cc(C)c(C2C(=O)CC(CCNC(=O)c3ccc(Br)cn3)C2=O)c(C)c1 (racemic) [Compound A120, 5-bromo-N-{2-[2,4-dioxo-3-(2,4,6-trimethylphenyl)cyclopentyl]ethyl}pyridine-2-carboxamide]
pest or weed control at 250 g/ha (Lolium perenne (LOLPE)): 100% | Post-emergence herbicidal activity, percentage phytotoxicity, ALOMY [1, 4]: 75% | Post-emergence herbicidal activity, percentage phytotoxicity, ALOMY [1, 5]: 80% | Post-emergence herbicidal activity, percentage phytotoxicity, ALOMY [1, 6]: 85% | Post-emergence herbicidal activity, percentage phytotoxicity, ALOMY [1, 7]: 80% | Post-emergence herbicidal activity, percentage phytotoxicity, AVEFA (Avena fatua (AVEFA); [4]): 75% | Post-emergence herbicidal activity, percentage phytotoxicity, AVEFA (Avena fatua (AVEFA); [5]): 78% | Post-emergence herbicidal activity, percentage phytotoxicity, AVEFA (Avena fatua (AVEFA); [6]): 85% | Post-emergence herbicidal activity, percentage phytotoxicity, AVEFA (Avena fatua (AVEFA); [7]): 78% | Post-emergence herbicidal activity, percentage phytotoxicity, LOLMU [2, 4]: 98% | Post-emergence herbicidal activity, percentage phytotoxicity, LOLMU [2, 5]: 99% | Post-emergence herbicidal activity, percentage phytotoxicity, LOLMU [2, 6]: 100% | Post-emergence herbicidal activity, percentage phytotoxicity, LOLMU [2, 7]: 99% | Post-emergence herbicidal activity, percentage phytotoxicity, POAAN (Poa annua (POAAN); [4]): 3% | Post-emergence herbicidal activity, percentage phytotoxicity, POAAN (Poa annua (POAAN); [5]): 3% | Post-emergence herbicidal activity, percentage phytotoxicity, POAAN (Poa annua (POAAN); [6]): 10% | Post-emergence herbicidal activity, percentage phytotoxicity, POAAN (Poa annua (POAAN); [7]): 3% | Post-emergence herbicidal activity, percentage phytotoxicity, SETVI (Setaria viridis (SETVI); [4]): 100% | Post-emergence herbicidal activity, percentage phytotoxicity, SETVI (Setaria viridis (SETVI); [5]): 100% | Post-emergence herbicidal activity, percentage phytotoxicity, SETVI (Setaria viridis (SETVI); [6]): 100% | Post-emergence herbicidal activity, percentage phytotoxicity, SETVI (Setaria viridis (SETVI); [7]): 100% | Percentage Phytotoxicity Spring Barley “Harrington” [3, 8]: 25% | Percentage Phytotoxicity Spring Barley “Harrington” [3, 11]: 38% | Percentage Phytotoxicity Spring Barley “Harrington” [3, 9]: 78% | Percentage Phytotoxicity Spring Barley “Harrington” [3, 10]: 38% | Percentage Phytotoxicity Winter Barley “Suzuka” (Winter Barley “Suzuka”; [8]): 15% | Percentage Phytotoxicity Winter Barley “Suzuka” (Winter Barley “Suzuka”; [11]): 40% | Percentage Phytotoxicity Winter Barley “Suzuka” (Winter Barley “Suzuka”; [9]): 88% | Percentage Phytotoxicity Winter Barley “Suzuka” (Winter Barley “Suzuka”; [10]): 40% | Percentage Phytotoxicity Winter Wheat “Hereward” (Winter Wheat “Hereward”; [8]): 38% | Percentage Phytotoxicity Winter Wheat “Hereward” (Winter Wheat “Hereward”; [11]): 50% | Percentage Phytotoxicity Winter Wheat “Hereward” (Winter Wheat “Hereward”; [9]): 68% | Percentage Phytotoxicity Winter Wheat “Hereward” (Winter Wheat “Hereward”; [10]): 50% | Percentage Phytotoxicity Spring Wheat “Freya” (Spring Wheat “Freya”; [8]): 18% | Percentage Phytotoxicity Spring Wheat “Freya” (Spring Wheat “Freya”; [11]): 30% | Percentage Phytotoxicity Spring Wheat “Freya” (Spring Wheat “Freya”; [9]): 55% | Percentage Phytotoxicity Spring Wheat “Freya” (Spring Wheat “Freya”; [10]): 30%
